Key:
BCDIN3D [1] = molecular target: T1, BCDIN3D (Homo sapiens, UniProt Q7Z5W3); test: BCDIN3D InCellPulse thermal stability assay in transfected A549 cells; format: cell-based; settings: transiently transfected A549 cells, heat shock 58° C. 15 min
T1 sequence (Q7Z5W3 1-292): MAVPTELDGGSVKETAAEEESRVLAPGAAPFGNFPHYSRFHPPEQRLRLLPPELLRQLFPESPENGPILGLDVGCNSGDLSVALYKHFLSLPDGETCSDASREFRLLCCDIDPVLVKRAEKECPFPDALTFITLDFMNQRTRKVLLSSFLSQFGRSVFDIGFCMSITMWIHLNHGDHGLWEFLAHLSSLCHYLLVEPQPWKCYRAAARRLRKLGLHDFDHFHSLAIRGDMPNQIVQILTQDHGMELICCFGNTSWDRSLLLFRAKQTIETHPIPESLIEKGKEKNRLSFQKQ
Method: BCDIN3D InCellPulse™ Assay
The thermal stability assay was performed with lipofectamine 3000 transiently transfected A549 using the plasmid pICP-ePL-BCDIN3 Da. This plasmid encodes for BCDIN3D N-terminally fused to a Prolabel (ePL), complementing a split β-Galactosidase Enzyme System InCELL Pulse Technology (InCELL Hunter Detection Kit, DiscoverX/Eurofins, cat: 96-0079L). 20 μl A549 cells (1500 cell/well) were added with a multidrop device to compounds to a final DMSO concentration of 0.6% in 384-well polypropylene plate format in IMDM medium and pre-incubated with the compounds for 1 h at 37° C. and 5% CO2. Subsequently, a heat shock was applied to the entire sealed plate in a 58° C. water bath for 15 min. The plates were cooled to RT, spun down and 25 μl/well of EA Detection Solution at 3.3× (InCELL Hunter Detection Kit) was added per well. 21 μl of the mixture was added to a black 384-well measurement plate (Corning, PS, black, Flat Bottom, #3575), mix for 30 minutes on a plate shaker at RT. Finally, the luminescence was measured with a Perkin Elmer EnVision with 0.2 s measurement time in luminescence mode.

BCDIN3D [2] = molecular target: T1, BCDIN3D; test: BCDIN3D IC50 RFMS (RapidFire) assay with mini-helix; format: biochemical; settings: mini-helix substrate 0.2 μM, SAM 6 μM, 25 nM enzyme
How it was run: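 25 nM enzyme preincubated 10 min at room temperature with compound (1% DMSO) in 25 mM Tris pH 8.0, 10 mM DTT, 1 mM EDTA, 0.03% BSA. Reaction started with 0.2 μM mini-helix plus 6 μM SAM, run 1 h at 37 °C, quenched with TCA; SAH product quantified by RapidFire MS against isotopic SAH standards.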

Compound	IC50 (BCDIN3D [1])	IC50 (BCDIN3D [2])
Cn1ncc2c(Nc3cc(F)c(Cl)c(F)c3)nc(NCC3(N)CC3)nc21 [Compound 2.20, 6-N-[(1-aminocyclopropyl)methyl]-4-N-(4-chloro-3,5-difluorophenyl)-1-methylpyrazolo[3,4-d]pyrimidine-4,6-diamine]	887 nM	179 nM
Cn1ncc2c(Nc3cccc(OC(F)F)c3)nc(NCC3(N)CC3)nc21 [Compound 2.21, 6-N-[(1-aminocyclopropyl)methyl]-4-N-[3-(difluoromethoxy)phenyl]-1-methylpyrazolo[3,4-d]pyrimidine-4,6-diamine]	2470 nM	514 nM
CC(C)Oc1ccc(Nc2nc(NCC3(N)CC3)nc3c2cnn3C)cc1 [Compound 2.22, 6-N-[(1-aminocyclopropyl)methyl]-1-methyl-4-N-(4-propan-2-yloxyphenyl)pyrazolo[3,4-d]pyrimidine-4,6-diamine]	1500 nM	332 nM
Cn1ncc2c(Nc3ccc(Cl)c(F)c3)nc(NCC3(N)CC3)nc21 [Compound 2.23]	473 nM	59.1 nM
Cn1ncc2c(Nc3cccc(F)c3F)nc(NCC3(N)CC3)nc21 [Compound 2.24, 6-N-[(1-aminocyclopropyl)methyl]-4-N-(2,3-difluorophenyl)-1-methylpyrazolo[3,4-d]pyrimidine-4,6-diamine]	3500 nM	2460 nM
Cn1ncc2c(Nc3cc(F)ccc3F)nc(NCC3(N)CC3)nc21 [Compound 2.25, 6-N-[(1-aminocyclopropyl)methyl]-4-N-(2,5-difluorophenyl)-1-methylpyrazolo[3,4-d]pyrimidine-4,6-diamine]	3520 nM	1540 nM
Cn1ncc2c(NCc3ccc(F)cc3F)nc(NCC3(N)CC3)nc21 [Compound 2.26]	4650 nM	1000 nM
Cn1ncc2c(Nc3ccc(F)c(Cl)c3)nc(NCC3(N)CC3)nc21 [Compound 2.27, 6-N-[(1-aminocyclopropyl)methyl]-4-N-(3-chloro-4-fluorophenyl)-1-methylpyrazolo[3,4-d]pyrimidine-4,6-diamine]	1810 nM	262 nM
Cn1ncc2c(Nc3ccc(Cl)cc3)nc(NCC3(N)CC3)nc21 [Compound 2.28, 6-N-[(1-aminocyclopropyl)methyl]-4-N-(4-chlorophenyl)-1-methylpyrazolo[3,4-d]pyrimidine-4,6-diamine]	1070 nM	57.4 nM
Cn1ncc2c(Nc3cccc(F)c3)nc(NCC3(N)CC3)nc21 [Compound 2.29, 6-N-[(1-aminocyclopropyl)methyl]-4-N-(3-fluorophenyl)-1-methylpyrazolo[3,4-d]pyrimidine-4,6-diamine]	3000 nM	444 nM
Cc1nn(C)c2nc(NCC3(N)CC3)nc(Nc3ccc(C(F)(F)F)cc3)c12 [Compound 2.30, 6-N-[(1-aminocyclopropyl)methyl]-1,3-dimethyl-4-N-[4-(trifluoromethyl)phenyl]pyrazolo[3,4-d]pyrimidine-4,6-diamine]	1780 nM	545 nM
Cn1ncc2c(Nc3ccc(C#N)cc3)nc(NCC3(N)CC3)nc21 [Compound 2.31, 4-[[6-[(1-aminocyclopropyl)methylamino]-1-methylpyrazolo[3,4-d]pyrimidin-4-yl]amino]benzonitrile]	8240 nM	976 nM
Cn1ncc2c(Nc3ccc(OC(F)(F)F)cc3)nc(NCC3(N)CC3)nc21 [Compound 2.32, 6-N-[(1-aminocyclopropyl)methyl]-1-methyl-4-N-[4-(trifluoromethoxy)phenyl]pyrazolo[3,4-d]pyrimidine-4,6-diamine]	815 nM	176 nM
COc1ccc(Nc2nc(NCC3(N)CC3)nc3c2cnn3C)cc1 [Compound 2.33, 6-N-[(1-aminocyclopropyl)methyl]-4-N-(4-methoxyphenyl)-1-methylpyrazolo[3,4-d]pyrimidine-4,6-diamine]	3860 nM	327 nM

From patent US20220370453A1 (Storm Therapeutics Ltd, priority 2019, published 2022)
